Results on eight compounds are retold here after PubChem BioAssay (NCI).

SMILES strings stand for the structures. Several values for one entry are separate records, joined by “and”; a condition that tells them apart may be missing. Identical values can stand only once.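 48-hour exposure; five concentrations; linearly interpolated endpoints. GI50: concentration for 50% inhibition of growth. TGI denotes the concentration required for complete inhibition of growth.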

Test systems include IGROV1 ovarian; RXF 393 renal; MALME-3M melanoma; M14 melanoma; SR leukemia; CAKI-1 renal; SF-268 CNS; SK-MEL-28 melanoma; MDA-MB-435; MOLT-4 leukemia.
Common to all, as to assay: DTP human tumour cell line panel, 48 h

With `C=CC(=O)N1C/C(=C\c2ccccc2)C(=O)/C(=C/c2ccccc2)C1`, the TGI – broadly, the concentration giving total growth inhibition – was 4.2 µM in the experiment with IGROV1 ovarian; 4.43 µM in the experiment on RXF 393 renal; 4.87 µM in the experiment on MALME-3M melanoma; 4.58 µM in the experiment with M14 melanoma; 0.935 µM and 5.24 µM in the experiment on SR leukemia; 6.88 µM with CAKI-1 renal. Also, the total growth inhibition concentration (TGI) in the experiment with SF-268 CNS came to 5.61 µM; with SK-MEL-28 melanoma it was 3.78 µM; with MDA-MB-435 it was 2.1 µM; in the experiment on MOLT-4 leukemia it was 4.5 µM. Also, the GI50 (as a rule, the concentration at which growth is held to half of that of the control) with SR leukemia was 0.566 µM; in the experiment with MDA-MB-435 it was 0.27 µM; in the experiment with MOLT-4 leukemia, 0.562 µM.

As to `COc1c2ccoc2cc2oc(=O)ccc12`, the concentration for total growth inhibition (TGI) in the experiment with IGROV1 ovarian, with RXF 393 renal, with MALME-3M melanoma, in the experiment with M14 melanoma, in the experiment with SR leukemia and in the experiment with CAKI-1 renal was more than 100 µM throughout. Besides, the concentration for total growth inhibition (TGI) with SF-268 CNS, in the experiment with SK-MEL-28 melanoma, with MDA-MB-435 and with MOLT-4 leukemia was more than 100 µM each time.

For the compound `O=C(c1ccc(OCCN2CCCCC2)cc1)c1c(-c2ccc(O)cc2)sc2cc(O)ccc12`, the GI50 is 12.3 µM and 16.5 µM in the experiment with IGROV1 ovarian; 5.2 µM and 4.32 µM with RXF 393 renal; 6.05 µM and 13.5 µM in the experiment with MALME-3M melanoma; 3.23 µM and 10.3 µM in the experiment with M14 melanoma; 3.16 µM and 1.88 µM in the experiment on SR leukemia; 4.65 µM and 14.4 µM in the experiment with CAKI-1 renal. Further, the GI50 in the experiment with SF-268 CNS is 6.67 µM and 12.8 µM; in the experiment with SK-MEL-28 melanoma, 12.3 µM and 6.65 µM; in the experiment with MDA-MB-435 it was 1.94 µM and 4.2 µM; with MOLT-4 leukemia, 2.8 µM and 4.86 µM. The total growth inhibition concentration (TGI) was 28.9 µM and 38.5 µM with IGROV1 ovarian; 19.1 µM and 15.9 µM in the experiment on RXF 393 renal; 23.5 µM and 28.9 µM with MALME-3M melanoma; 11.1 µM and 32.3 µM in the experiment on M14 melanoma; 20.6 µM and 34.1 µM in the experiment with CAKI-1 renal; 20.1 µM and 35.5 µM with SF-268 CNS. The TGI in the experiment with SK-MEL-28 melanoma is 25.1 µM and 23.6 µM; in the experiment on MDA-MB-435, 4.58 µM and 19.7 µM; in the experiment with MOLT-4 leukemia it was 10.8 µM and 23.2 µM.

Take `COc1ccc(-c2nsc3c2NC(=O)CC3c2ccc(F)cc2)cc1` (stereo unspecified): the GI50 in the experiment on IGROV1 ovarian is 5.44 µM; in the experiment with RXF 393 renal, 5.91 µM; with MALME-3M melanoma, 10.3 µM; with M14 melanoma, 3.74 µM; in the experiment on SR leukemia it was 1.1 µM; in the experiment with CAKI-1 renal it was 2.28 µM. Also, the GI50 with SF-268 CNS is 10.2 µM; in the experiment on SK-MEL-28 melanoma, 4.74 µM; with MDA-MB-435 it was 0.513 µM; with MOLT-4 leukemia, 0.577 µM. Further, the TGI in the experiment on IGROV1 ovarian was more than 100 µM; in the experiment on RXF 393 renal it was more than 77.5 µM; in the experiment on MALME-3M melanoma, more than 100 µM; with M14 melanoma, more than 100 µM; with SR leukemia it was more than 100 µM; in the experiment with CAKI-1 renal, 18.4 µM. Moreover, the TGI in the experiment with SF-268 CNS is more than 100 µM; in the experiment with SK-MEL-28 melanoma, more than 100 µM; in the experiment with MDA-MB-435, 2.43 µM; with MOLT-4 leukemia it was more than 100 µM.

Take `O=C(N/N=C/c1ccccc1O)C(O)(c1ccccc1)c1ccccc1`: the GI50 was 3.83 µM in the experiment on IGROV1 ovarian; more than 100 µM with RXF 393 renal; more than 100 µM in the experiment with MALME-3M melanoma; 50.5 µM in the experiment with M14 melanoma; 4.29 µM in the experiment on SR leukemia; 2.36 µM with CAKI-1 renal. Besides, the GI50 in the experiment with SF-268 CNS is 8.69 µM; with SK-MEL-28 melanoma, more than 100 µM; in the experiment with MDA-MB-435, more than 100 µM; in the experiment with MOLT-4 leukemia, 4.46 µM. Besides, the TGI in the experiment on IGROV1 ovarian, in the experiment with RXF 393 renal, with MALME-3M melanoma, in the experiment with M14 melanoma, in the experiment with SR leukemia and in the experiment on CAKI-1 renal was more than 100 µM throughout. For the same compound, the TGI with SF-268 CNS, with SK-MEL-28 melanoma, with MDA-MB-435 and in the experiment on MOLT-4 leukemia was more than 100 µM throughout.

Regarding `COC(=O)[C@H]1[C@@H](O)[C@@]2(O)c3c(OC)cc(O[C@@H]4O[C@@H]([C@H](O)CO)CO[C@H]4OC)cc3O[C@@]2(c2ccc(OC)cc2)[C@@H]1c1ccccc1`, the concentration for 50% growth inhibition (GI50) in the experiment with IGROV1 ovarian is 0.00585 µM; with RXF 393 renal, 0.00944 µM; in the experiment with MALME-3M melanoma, 0.00321 µM; in the experiment on M14 melanoma it was 0.00818 µM; with SR leukemia it was 0.00341 µM; in the experiment with CAKI-1 renal it was 0.997 µM. For the same compound, the concentration for 50% growth inhibition (GI50) in the experiment with SF-268 CNS is 0.00342 µM; with SK-MEL-28 melanoma it was 0.00321 µM; in the experiment with MDA-MB-435 it was 0.00358 µM; in the experiment on MOLT-4 leukemia, 0.0031 µM. Also, the TGI with IGROV1 ovarian was 0.0717 µM; in the experiment with RXF 393 renal, 0.0436 µM; in the experiment with MALME-3M melanoma, 0.0259 µM; with M14 melanoma it was 0.0271 µM; with SR leukemia, 0.147 µM; in the experiment on CAKI-1 renal it was more than 1 µM. The TGI in the experiment on SF-268 CNS is 0.0425 µM; with SK-MEL-28 melanoma, 0.0119 µM; in the experiment on MDA-MB-435, 0.0143 µM.

Consider `N=C(N)/N=C(\N)c1c(-c2cc(O)ccc2O)nc2sccn12`, for which the GI50 was 22.5 µM in the experiment with IGROV1 ovarian; 20.6 µM in the experiment with RXF 393 renal; 15.9 µM with MALME-3M melanoma; 19.8 µM in the experiment on M14 melanoma; 22.7 µM in the experiment with SR leukemia; 20.1 µM in the experiment with CAKI-1 renal. Besides, the GI50 in the experiment with SF-268 CNS is more than 100 µM; in the experiment with SK-MEL-28 melanoma, 21.4 µM; in the experiment on MDA-MB-435, 18 µM; in the experiment with MOLT-4 leukemia, 29.4 µM. Besides, the concentration for total growth inhibition (TGI) is 44.1 µM in the experiment with IGROV1 ovarian; 41.6 µM in the experiment on RXF 393 renal; 35.4 µM with MALME-3M melanoma; 37.9 µM in the experiment on M14 melanoma; 87.2 µM in the experiment on SR leukemia; 39.3 µM with CAKI-1 renal. Besides, the TGI was more than 100 µM in the experiment with SF-268 CNS, 46 µM in the experiment with SK-MEL-28 melanoma, 35.3 µM in the experiment on MDA-MB-435 and more than 100 µM in the experiment on MOLT-4 leukemia.

For the compound `CCCOc1ccc(-c2nc(-c3ccc(N=Cc4ccc(N(CCOS(C)(=O)=O)CCOS(C)(=O)=O)cc4C)cc3)cs2)cc1`, the TGI in the experiment with IGROV1 ovarian is more than 67.1 µM; in the experiment on RXF 393 renal, 28.9 µM; with MALME-3M melanoma it was more than 95.6 µM; in the experiment with M14 melanoma it was more than 86.4 µM; with SR leukemia it was 57 µM; in the experiment on CAKI-1 renal it was 12.8 µM. The TGI in the experiment on SF-268 CNS was 77.8 µM; in the experiment with SK-MEL-28 melanoma, more than 100 µM; with MDA-MB-435, more than 100 µM; in the experiment with MOLT-4 leukemia it was 66.6 µM.
